Usually EC50 stands for the concentration needed to bring the measured effect to its halfway point. What is called solubility is how much of the substance goes into solution per volume. One may read the Cmax as the peak of the concentration-time curve. The term logD denotes lipophilicity at a set pH, counting ionised and neutral species. One may read the fraction unbound as free concentration divided by total concentration.

Converted amounts (≈) assume the structure as drawn. The source made the active and inactive calls. The calls are words filed in the database; no cut-off is given here.

The results in this text go back to ChEMBL document CHEMBL4425194, “Synthesis and biological evaluation of novel imidazol-1-ylacetic acid derivatives as non-brain penetrant bombesin receptor subtype-3 (BRS-3) agonists” (Bioorg Med Chem Lett, 2016).

Data set [1] deals with T1, Bombesin receptor subtype-3 (Mus musculus, UniProt O54798).
T1 sequence (O54798 whole entry): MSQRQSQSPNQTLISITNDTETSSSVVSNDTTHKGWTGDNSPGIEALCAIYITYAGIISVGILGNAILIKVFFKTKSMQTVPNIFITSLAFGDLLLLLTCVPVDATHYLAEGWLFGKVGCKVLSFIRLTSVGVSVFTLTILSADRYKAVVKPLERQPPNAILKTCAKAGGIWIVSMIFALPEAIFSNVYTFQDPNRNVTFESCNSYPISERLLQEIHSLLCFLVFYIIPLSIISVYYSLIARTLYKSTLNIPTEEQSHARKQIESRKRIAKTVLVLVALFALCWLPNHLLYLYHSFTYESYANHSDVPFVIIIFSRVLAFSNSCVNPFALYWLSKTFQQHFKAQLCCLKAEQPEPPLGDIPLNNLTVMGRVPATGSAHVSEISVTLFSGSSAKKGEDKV
Put plainly: Agonist activity at mouse BRS3 expressed in CHOK1 cells measured after 1 hrs by IP-One HTRF assay. It counts as cell-based.

In data set [2] the target is T2, Bombesin receptor subtype-3 (Homo sapiens, UniProt P32247).
T2 sequence (P32247 whole entry): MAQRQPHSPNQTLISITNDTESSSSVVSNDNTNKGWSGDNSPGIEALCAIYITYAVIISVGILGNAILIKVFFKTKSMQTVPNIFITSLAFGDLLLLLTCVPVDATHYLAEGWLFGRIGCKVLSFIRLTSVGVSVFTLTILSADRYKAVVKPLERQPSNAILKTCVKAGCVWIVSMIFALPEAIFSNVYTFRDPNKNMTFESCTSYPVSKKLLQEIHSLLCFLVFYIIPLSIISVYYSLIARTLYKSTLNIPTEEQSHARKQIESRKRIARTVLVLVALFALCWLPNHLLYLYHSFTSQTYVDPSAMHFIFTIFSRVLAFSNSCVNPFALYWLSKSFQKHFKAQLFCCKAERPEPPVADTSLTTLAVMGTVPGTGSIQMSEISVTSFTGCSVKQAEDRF
The experiment in a line: Agonist activity at human BRS3 expressed in CHOK1 cells measured after 1 hrs by IP-One HTRF assay. It counts as cell-based.

Data set [3] can be described thus: Drug uptake in mouse brain assessed as active compound level at 10 mg/kg, iv administered as infusion measured after 30 or 60 mins. It counts as ADME, organism-based. Conditions: 1 h.
Data set [4] can be described thus: Drug uptake in mouse brain assessed as metabolite level at 3 mg/kg, iv administered as infusion measured after 30 or 60 mins. It counts as ADME, organism-based. Conditions: 1 h.
Data set [5] in a line: Drug uptake in mouse brain assessed as active compound level at 3 mg/kg, iv administered as infusion measured after 30 or 60 mins. It counts as ADME, organism-based. Conditions: 1 h.
Data set [6] is described as follows: Drug uptake in mouse plasma assessed as ratio of active compound to metabolite at 3 mg/kg, iv administered as infusion measured after 30 or 60 mins. It counts as ADME, organism-based. Conditions: in vivo, 1 h, pooled result: one value given for 2 cell lines, strains, targets or settings.
The nature of data set [7]: Drug uptake in mouse brain assessed as metabolite level at 10 mg/kg, iv administered as infusion measured after 30 or 60 mins. It counts as ADME, organism-based. The following applies: 1 h.
The nature of data set [8]: Solubility of the compound in JP1 at pH 1.2. It counts as physicochemical. Conditions: JP1, pH 1.2.
The species named for data set [9] is Mus musculus. The experiment in a line: Antiobesity activity in BRS3-deficient C57BL/6N mouse assessed as anorectic effect measured after 1 hr. It counts as functional, organism-based.
Data set [10] is described as follows: Plasma concentration in halothane anesthetized dog at 3 mg/kg/ml, iv measured after 30 mins. It counts as ADME, organism-based, Canis lupus familiaris.
A short description of data set [11]: Cmax in halothane anesthetized dog showing 100.9% increase in heart rate at 3 mg/kg/ml, iv measured after 30 mins. It counts as ADME, organism-based, Canis lupus familiaris. Also noted: dose 3 mg/kg, route intravenous. Conditions: in vivo.
Data set [12] is described as follows: Octanol-water distribution coefficient, log D of the compound in PBS buffer at pH 7.4. It counts as physicochemical.
Data set [13] can be described thus: Plasma concentration in halothane anesthetized dog at 3 mg/kg/ml, iv measured after 60 mins. It counts as ADME, organism-based, Canis lupus familiaris.
Data set [14] concerns Mus musculus. The experiment in a line: Antiobesity activity in po dosed C57BL/6N mouse assessed as anorectic effect measured after 1 hr. It counts as functional, organism-based.
Data set [15] has as its system Mus musculus. The experiment in a line: Antiobesity activity in C57BL/6N mouse assessed as reduction in food intake at 30 mg/kg, po measured after 1 hr. It counts as functional. Further details: scale not given: the % may be the effect or the level left.
The nature of data set [16]: Cmax in halothane anesthetized dog not showing increase in heart rate at 3 mg/kg/ml, iv measured after 30 mins. It counts as ADME, organism-based, Canis lupus familiaris. Further details: dose 3 mg/kg, route intravenous. The following applies: in vivo.
Data set [17] is described as follows: Cardiotoxicity in halothane anesthetized dog assessed as effect on blood pressure at 3 mg/kg/ml, iv measured after 30 mins. It counts as toxicity, organism-based, Canis lupus familiaris. The following applies: in vivo, 0.5 h.
The nature of data set [18]: Solubility of the compound in JP2 at pH 6.8. It counts as physicochemical. Conditions: JP2, pH 6.8.
A short description of data set [19]: Fraction unbound in mouse plasma. It counts as ADME, cell-free.

With `CCC(C)(C)Cc1cn(CC(=O)O)c(CCc2ccc(-c3ccccn3)cc2)n1`, the concentration giving a half-maximal response (EC50) was found to be 1910 nM in data set [1] and 4080 nM in data set [2].

Take `COC(=O)c1c(F)cccc1-c1ccc(CCc2ncc(CC(C)(C)C)n2CCNS(C)(=O)=O)cc1`: the Kp in [3], in [4], in [5] and in data set [7] was 0.02 throughout. The results for the EC50 in [1] and in [2] were 7 nM and 11 nM, respectively. The Ratio in [6] is 2.3.

With `CC(C)(C)Cc1cnc(CCc2ccc(-c3cccc(F)c3C(=O)O)cc2)n1CCNS(C)(=O)=O`, the EC50 came to 4 nM in data set [1] and 2 nM in data set [2].

Consider `COC(=O)C(C)(C)c1ccc(CCc2ncc(CC(C)(C)C)[nH]2)cc1`, for which the EC50 in data set [1] turned out to be 9910 nM; in data set [2], 2230 nM.

As for `CC(C)(C)Cc1cnc(CCc2ccc(-c3ccccc3C(=O)O)cc2)n1CC(=O)O`, the EC50 was found to be 1270 nM in data set [1] and 897 nM in data set [2].

Consider `CC(C)(C)Cc1cnc(CCc2ccc(-c3cccc(F)c3C(=O)O)cc2)n1CCO`, for which the EC50 in data set [1] amounted to 2 nM; in data set [2] it was 3 nM.

As to `CCC(C)(C)Cc1cnc(CCc2ccc(-c3ccccn3)cc2)n1CC(=O)O`, the EC50 was determined as 26 nM in data set [1] and 42 nM in data set [2].

`COC(=O)c1c(F)cccc1-c1ccc(CCc2ncc(CC(C)(C)C)n2CCO)cc1`: the EC50 worked out at 24 nM in data set [1] and 21 nM in [2].

As for `COC(=O)c1c(F)cccc1-c1ccc(CCc2ncc(CC(C)(C)C)n2Cc2ccc(C(=O)O)cc2)cc1`, the EC50 in [1] is 5 nM; in [2] it was 3 nM.

Turning to `COC(=O)C(C)(C)Oc1ccc(CCc2ncc(CC(C)(C)C)[nH]2)cc1`, the EC50 in data set [1] is 621 nM; in data set [2], greater than 10000 nM.

As for `COC(=O)c1ccccc1-c1ccc(CCc2ncc(CC(C)(C)C)n2CC(=O)O)cc1`, the EC50 in [1] came to 694 nM; in data set [2], 968 nM.

On to `COC(=O)c1c(F)cccc1-c1ccc(CCc2ncc(CC(C)(C)C)n2CCOc2cccc(O)c2)cc1`, for which the Kp in [3] amounted to 0.05; in data set [4] it was 0.31; in [5], 0.05; in data set [7], 0.31. Besides, the results for the EC50 in [1] and in [2] were 25 nM and 13 nM, respectively. Besides, in [6], the Ratio came to 2.49.

As to `COC(=O)c1c(F)cccc1-c1ccc(CCc2ncc(CC(C)(C)C)n2CC(=O)O)cc1`, the solubility was 730 µg/mL (≈ 1610 µM) in data set [8] and 370 µg/mL (≈ 818 µM) in data set [18]. The result in the data set filed under Mus musculus [9] was inactive. Moreover, the concentration at 0.5 h in data set [10] is 28.2 µM. Besides, the EC50 in [1] is 44 nM; in data set [2], 39 nM. Besides, the results for the Cmax in data set [11] and in data set [16] were 16.8 µM and 44.3 µM, respectively. In addition, the logD in [12] was 2. Also, the Ratio in data set [6] worked out at 1.31. Further, in data set [13], the concentration at 1 h stood at 1.14 µM. Moreover, the Activity entry in the data set on Mus musculus [14] was “Dose-dependent effect”; in the data set on Mus musculus [15], 20%; in data set [17], “Non-Toxic”. In data set [19], this compound yielded an unbound share (fraction unbound) of 0.0167.

`CC(C)(C)Cc1cnc(CCc2ccc(-c3cccc(F)c3C(=O)O)cc2)n1Cc1ccc(C(=O)O)cc1`: the figures for the EC50 in data set [1] and in data set [2] were 13 nM and 12 nM, respectively.

In the case of `CC(C)(C)Cc1cnc(CCc2ccc(-c3cccc(F)c3C(=O)O)cc2)n1CCC(=O)O`, the values for the EC50 in data set [1] and in data set [2] were 61 nM and 11 nM, respectively.

For the compound `COC(=O)c1ccccc1-c1ccc(CCc2ncc(CC(C)(C)C)[nH]2)cc1`, the EC50 in data set [1] was 498 nM; in data set [2] it was 644 nM.

Turning to `CC(C)(C)Cc1cnc(CCc2ccc(-c3cccc(F)c3C(=O)O)cc2)n1CCOc1cccc(O)c1`, the EC50 was 0.8 nM in [1] and 0.9 nM in [2].

Take `COC(=O)c1c(F)cccc1-c1ccc(CCc2ncc(CC(C)(C)C)n2CCC(=O)O)cc1`: the Kp in data set [3] and in [5] was 0.02 each time. The EC50 in data set [1] turned out to be 3 nM; in [2], 1 nM. Moreover, the Ratio in data set [6] is recorded as 1.3.

Regarding `COC(=O)c1ccccc1-c1ccc(CCCc2ncc(CC(C)(C)C)[nH]2)cc1`, the EC50 in data set [1] and in data set [2] was greater than 10000 nM in each case.

As for `CC(C)(C)Cc1cnc(CCc2ccc(-c3cccc(F)c3C(=O)O)cc2)n1CC(=O)O`, the solubility in data set [8] and in data set [18] was greater than 870 µg/mL in each case. Also, the concentration at 0.5 h in [10] amounted to 20.1 µM. Further, the figures for the EC50 in [1] and in data set [2] were 140 nM and 69 nM, respectively. Further, the Cmax was found to be 4.2 µM in data set [11] and 38.1 µM in data set [16]. The compound further returned a logD in [12] of less than -1.8. In [13], this compound yielded a concentration at 1 h of 1.09 µM. In data set [19], this compound showed a fraction unbound of 0.181.
